Data: US20110034407A1, “USE OF SPHINGOMYELIN AND NON-DIGESTIBLE CARBOHYDRATES FOR IMPROVING INTESTINAL MICROBIOTA” (N. V. Nutricia, priority 2007, published 2011)

Experiments:
Bifidobacteria = assay: Faecal fermentation in dialysis tubes, FISH with Bifl 64 probe; format: cell-based; conditions: t = 72 h versus t = 0
Description: (§1) Pooled fresh faeces obtained from 4-5 healthy adults was used to perform fermentation studies as described in Appendix I of WO 2004/000340. The experiments were performed in duplo. The faeces, diluted 1:5 into McBain and Farlane medium, was put into dialysis tubes and suspended in bottles with buffer under anaerobic conditions and was first incubated at 37° C. for 16 h for reasons of adaptation before inoculating them with the substrates according to the table below at t=0.
(§2) The test substrates were added once a day (at t=0, 24, and 48 hours). Buffer was refreshed once a day. A sample was taken at t=0 and t=72. This relatively long period was used since shifts in bacterial populations are relatively slow compared to the shifts in short chain acids formed.
(§3) The sphingosine was dissolved in ethanol (stock 10 mg/ml). 30 μl of a stock of 10 mg/ml was added to the dialysis tube.
(§4) The samples were analysed by Fluorescence In Situ Hybridisation (FISH) as described in Franks, A. H., et al., Appl. Environ. Microbiol., 1998. 64(9): p. […] Total number of bacteria was determined by DAPI staining. The ratio Firmicutes/Bacteroidetes was set at the percentage of bacteria detected by the Chis150, Clit135, Erec482 and Lab158 probe, divided by the percentage of bacteria […] by the Bac303 probe. The bacteria detected by the Erec482 group are usually the largest group of Firmicutes in the human intestine.

[1] = tested on: Eubacterium rectale and Clostridium coccoides group; assay: Faecal fermentation in dialysis tubes, FISH with Erec482 probe; format: cell-based; conditions: t = 72 h versus t = 0
Description: as §1, §2, §3, §4

**Q.** Which “change in bifidobacteria (in words)” value (Bifidobacteria) does the source give for `CCCCCCCCCCCCC/C=C/[C@@H](O)[C@@H](N)CO` [Number 1, D-sphingosine] here?
**A.** Its value is “increase”.

**Q.** And the “change in Clostridia and Eubacteria, largest group of intestinal Firmicutes (in words)” value [1]?
**A.** Its value is “decrease”.
